Assay results: paper PMC4685510, “A Cell Biologist’s Field Guide to Aurora Kinase Inhibitors” (Frontiers in Oncology, 2015)

Key:
Test in all cases: biochemical
Type in all cases: biochemical
[1] = target: 363 human kinases (including Aurora A/B/C) (Homo sapiens, UniProt P78368); conditions: CK1g2, [ATP] 100 µM; for remaining activity at 0.1 µM: 100 nM; for remaining activity at 0.1 µM / remaining activity at 0.5 µM: read-out: % Enzyme Activity (relative to DMSO controls)
From the text: (§1) However, the Aurora A/B selectivity ratios derived from our in vitro and in vivo data can be compared to prioritize inhibitors.

[2] = target: 363 human kinases (including Aurora A/B/C) (Homo sapiens, UniProt Q8N5S9); conditions: CAMKK1, [ATP] 5 µM; for remaining activity at 0.1 µM: 100 nM; for remaining activity at 0.1 µM / remaining activity at 0.5 µM: read-out: % Enzyme Activity (relative to DMSO controls)
Sequence of 363 human kinases (including Aurora A/B/C) (Homo sapiens, UniProt Q8N5S9) (Q8N5S9 whole entry): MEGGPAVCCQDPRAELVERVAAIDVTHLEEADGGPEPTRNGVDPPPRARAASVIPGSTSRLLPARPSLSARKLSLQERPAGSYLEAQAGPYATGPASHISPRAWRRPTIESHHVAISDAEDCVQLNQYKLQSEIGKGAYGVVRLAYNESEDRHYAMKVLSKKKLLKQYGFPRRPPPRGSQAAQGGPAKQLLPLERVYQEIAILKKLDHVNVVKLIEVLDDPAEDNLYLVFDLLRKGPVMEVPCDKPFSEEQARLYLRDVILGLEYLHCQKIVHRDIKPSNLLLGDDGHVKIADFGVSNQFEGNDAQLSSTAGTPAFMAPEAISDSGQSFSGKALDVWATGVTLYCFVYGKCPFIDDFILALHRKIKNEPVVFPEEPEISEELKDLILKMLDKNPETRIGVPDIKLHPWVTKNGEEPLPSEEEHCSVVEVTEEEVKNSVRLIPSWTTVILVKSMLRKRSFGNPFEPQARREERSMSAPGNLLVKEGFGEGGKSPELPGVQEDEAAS
From the text: as §1

[3] = target: 363 human kinases (including Aurora A/B/C) (Homo sapiens, UniProt Q04912); conditions: RON/MST1R; for remaining activity at 0.1 µM: 100 nM; for remaining activity at 0.1 µM / remaining activity at 0.5 µM: read-out: % Enzyme Activity (relative to DMSO controls)
From the text: as §1

[4] = target: T1, 363 human kinases (including Aurora A/B/C) (Homo sapiens, UniProt O15530); conditions: PDK1/PDPK1; for remaining activity at 0.1 µM: 100 nM; for remaining activity at 0.1 µM / remaining activity at 0.5 µM: read-out: % Enzyme Activity (relative to DMSO controls)
T1 sequence (O15530 1-556): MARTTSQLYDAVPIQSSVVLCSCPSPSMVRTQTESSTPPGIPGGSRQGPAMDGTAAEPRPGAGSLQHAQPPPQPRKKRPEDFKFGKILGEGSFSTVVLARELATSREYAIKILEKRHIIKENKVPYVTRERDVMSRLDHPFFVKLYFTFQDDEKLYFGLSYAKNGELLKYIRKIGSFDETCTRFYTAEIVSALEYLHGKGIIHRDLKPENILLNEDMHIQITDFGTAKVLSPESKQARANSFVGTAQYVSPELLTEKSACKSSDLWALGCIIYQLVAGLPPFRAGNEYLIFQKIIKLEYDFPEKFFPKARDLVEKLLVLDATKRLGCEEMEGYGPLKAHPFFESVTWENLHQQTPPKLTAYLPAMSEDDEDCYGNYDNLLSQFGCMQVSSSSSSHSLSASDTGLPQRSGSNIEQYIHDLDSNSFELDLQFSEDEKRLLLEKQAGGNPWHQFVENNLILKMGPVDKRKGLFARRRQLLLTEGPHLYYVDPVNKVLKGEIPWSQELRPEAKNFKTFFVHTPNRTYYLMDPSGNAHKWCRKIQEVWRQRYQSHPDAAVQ
From the text: as §1

[5] = target: 363 human kinases (including Aurora A/B/C) (Homo sapiens, UniProt P10721); conditions: c-Kit, [ATP] 100 µM; for remaining activity at 0.1 µM: 100 nM; for remaining activity at 0.1 µM / remaining activity at 0.5 µM: read-out: % Enzyme Activity (relative to DMSO controls)
Sequence of 363 human kinases (including Aurora A/B/C) (Homo sapiens, UniProt P10721) (P10721 26-976): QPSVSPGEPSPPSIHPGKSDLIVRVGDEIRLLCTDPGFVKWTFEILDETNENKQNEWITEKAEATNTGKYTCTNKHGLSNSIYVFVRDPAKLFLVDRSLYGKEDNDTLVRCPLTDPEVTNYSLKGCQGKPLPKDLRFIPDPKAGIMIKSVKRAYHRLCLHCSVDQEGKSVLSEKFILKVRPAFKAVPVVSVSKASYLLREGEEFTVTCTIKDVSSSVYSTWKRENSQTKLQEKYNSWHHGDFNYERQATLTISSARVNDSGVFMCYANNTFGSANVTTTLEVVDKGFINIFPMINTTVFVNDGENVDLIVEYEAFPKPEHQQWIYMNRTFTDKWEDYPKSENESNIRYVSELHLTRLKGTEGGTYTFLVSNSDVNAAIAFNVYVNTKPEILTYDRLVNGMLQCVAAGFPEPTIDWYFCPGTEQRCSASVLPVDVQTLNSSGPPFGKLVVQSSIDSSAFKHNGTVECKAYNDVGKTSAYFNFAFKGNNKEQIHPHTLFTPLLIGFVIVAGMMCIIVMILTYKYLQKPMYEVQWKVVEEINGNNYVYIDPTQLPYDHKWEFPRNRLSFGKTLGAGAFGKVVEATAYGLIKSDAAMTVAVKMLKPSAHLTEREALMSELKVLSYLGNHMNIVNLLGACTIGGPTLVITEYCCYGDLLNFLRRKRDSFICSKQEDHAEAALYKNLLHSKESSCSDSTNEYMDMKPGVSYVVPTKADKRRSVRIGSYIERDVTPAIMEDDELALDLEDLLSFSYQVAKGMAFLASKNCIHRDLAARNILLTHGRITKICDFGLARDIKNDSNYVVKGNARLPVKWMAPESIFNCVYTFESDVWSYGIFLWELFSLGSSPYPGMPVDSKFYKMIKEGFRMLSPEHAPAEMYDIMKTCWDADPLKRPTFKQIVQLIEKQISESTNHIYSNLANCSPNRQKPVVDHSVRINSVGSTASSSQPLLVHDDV
From the text: as §1

[6] = target: 363 human kinases (including Aurora A/B/C) (Homo sapiens, UniProt P37023); conditions: ALK1/ACVRL1, [ATP] 100 µM; for remaining activity at 0.1 µM: 100 nM; for remaining activity at 0.1 µM / remaining activity at 0.5 µM: read-out: % Enzyme Activity (relative to DMSO controls)
Sequence of 363 human kinases (including Aurora A/B/C) (Homo sapiens, UniProt P37023) (P37023 22-503): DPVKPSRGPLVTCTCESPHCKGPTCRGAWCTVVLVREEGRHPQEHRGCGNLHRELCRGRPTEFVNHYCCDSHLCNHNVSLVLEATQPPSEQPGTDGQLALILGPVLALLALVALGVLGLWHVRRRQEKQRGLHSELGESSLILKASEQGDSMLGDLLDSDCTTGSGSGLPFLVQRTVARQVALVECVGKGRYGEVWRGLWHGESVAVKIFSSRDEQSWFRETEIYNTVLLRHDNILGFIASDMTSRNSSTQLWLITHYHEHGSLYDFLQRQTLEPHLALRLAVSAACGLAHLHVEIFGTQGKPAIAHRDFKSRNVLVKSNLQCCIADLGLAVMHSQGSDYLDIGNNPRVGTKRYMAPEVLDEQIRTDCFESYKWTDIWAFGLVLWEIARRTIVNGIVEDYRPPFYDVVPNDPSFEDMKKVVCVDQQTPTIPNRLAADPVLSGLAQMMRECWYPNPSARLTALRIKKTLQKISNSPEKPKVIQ
From the text: as §1

[7] = target: 363 human kinases (including Aurora A/B/C) (Homo sapiens, UniProt Q9Y3S1); conditions: WNK2; for remaining activity at 0.1 µM: 100 nM; for remaining activity at 0.1 µM / remaining activity at 0.5 µM: read-out: % Enzyme Activity (relative to DMSO controls)
From the text: as §1

[8] = target: T2, 363 human kinases (including Aurora A/B/C) (Homo sapiens, UniProt Q8IVH8); conditions: GLK/MAP4K3; for remaining activity at 0.1 µM: 100 nM; for remaining activity at 0.1 µM / remaining activity at 0.5 µM: read-out: % Enzyme Activity (relative to DMSO controls)
T2 sequence (Q8IVH8 1-894): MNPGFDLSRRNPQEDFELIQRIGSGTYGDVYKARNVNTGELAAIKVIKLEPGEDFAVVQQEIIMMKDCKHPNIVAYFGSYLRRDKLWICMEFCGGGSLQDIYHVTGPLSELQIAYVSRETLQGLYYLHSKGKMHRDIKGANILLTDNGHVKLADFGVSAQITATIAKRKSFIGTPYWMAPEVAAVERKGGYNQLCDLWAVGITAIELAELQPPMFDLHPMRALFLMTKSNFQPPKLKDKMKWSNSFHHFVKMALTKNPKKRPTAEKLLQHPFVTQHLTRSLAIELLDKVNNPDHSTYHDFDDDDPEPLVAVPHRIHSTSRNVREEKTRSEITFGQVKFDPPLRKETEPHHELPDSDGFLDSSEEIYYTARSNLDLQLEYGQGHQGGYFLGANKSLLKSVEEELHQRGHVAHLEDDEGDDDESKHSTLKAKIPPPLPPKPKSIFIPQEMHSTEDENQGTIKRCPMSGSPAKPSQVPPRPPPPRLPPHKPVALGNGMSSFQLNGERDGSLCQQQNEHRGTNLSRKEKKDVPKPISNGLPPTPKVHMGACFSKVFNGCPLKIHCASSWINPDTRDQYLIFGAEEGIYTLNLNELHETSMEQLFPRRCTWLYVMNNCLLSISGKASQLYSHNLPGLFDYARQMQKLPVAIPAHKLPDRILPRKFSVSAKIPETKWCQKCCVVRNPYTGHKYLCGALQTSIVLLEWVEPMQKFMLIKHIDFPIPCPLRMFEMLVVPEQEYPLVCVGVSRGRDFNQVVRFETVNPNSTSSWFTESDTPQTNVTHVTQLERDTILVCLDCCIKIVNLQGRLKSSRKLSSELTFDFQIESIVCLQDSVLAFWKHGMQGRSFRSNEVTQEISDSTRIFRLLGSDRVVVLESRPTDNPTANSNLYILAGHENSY
From the text: as §1

[9] = target: 363 human kinases (including Aurora A/B/C) (Homo sapiens, UniProt Q86Z02); conditions: HIPK1; for remaining activity at 0.1 µM: 100 nM; for remaining activity at 0.1 µM / remaining activity at 0.5 µM: read-out: % Enzyme Activity (relative to DMSO controls)
Sequence of 363 human kinases (including Aurora A/B/C) (Homo sapiens, UniProt Q86Z02) (Q86Z02 whole entry): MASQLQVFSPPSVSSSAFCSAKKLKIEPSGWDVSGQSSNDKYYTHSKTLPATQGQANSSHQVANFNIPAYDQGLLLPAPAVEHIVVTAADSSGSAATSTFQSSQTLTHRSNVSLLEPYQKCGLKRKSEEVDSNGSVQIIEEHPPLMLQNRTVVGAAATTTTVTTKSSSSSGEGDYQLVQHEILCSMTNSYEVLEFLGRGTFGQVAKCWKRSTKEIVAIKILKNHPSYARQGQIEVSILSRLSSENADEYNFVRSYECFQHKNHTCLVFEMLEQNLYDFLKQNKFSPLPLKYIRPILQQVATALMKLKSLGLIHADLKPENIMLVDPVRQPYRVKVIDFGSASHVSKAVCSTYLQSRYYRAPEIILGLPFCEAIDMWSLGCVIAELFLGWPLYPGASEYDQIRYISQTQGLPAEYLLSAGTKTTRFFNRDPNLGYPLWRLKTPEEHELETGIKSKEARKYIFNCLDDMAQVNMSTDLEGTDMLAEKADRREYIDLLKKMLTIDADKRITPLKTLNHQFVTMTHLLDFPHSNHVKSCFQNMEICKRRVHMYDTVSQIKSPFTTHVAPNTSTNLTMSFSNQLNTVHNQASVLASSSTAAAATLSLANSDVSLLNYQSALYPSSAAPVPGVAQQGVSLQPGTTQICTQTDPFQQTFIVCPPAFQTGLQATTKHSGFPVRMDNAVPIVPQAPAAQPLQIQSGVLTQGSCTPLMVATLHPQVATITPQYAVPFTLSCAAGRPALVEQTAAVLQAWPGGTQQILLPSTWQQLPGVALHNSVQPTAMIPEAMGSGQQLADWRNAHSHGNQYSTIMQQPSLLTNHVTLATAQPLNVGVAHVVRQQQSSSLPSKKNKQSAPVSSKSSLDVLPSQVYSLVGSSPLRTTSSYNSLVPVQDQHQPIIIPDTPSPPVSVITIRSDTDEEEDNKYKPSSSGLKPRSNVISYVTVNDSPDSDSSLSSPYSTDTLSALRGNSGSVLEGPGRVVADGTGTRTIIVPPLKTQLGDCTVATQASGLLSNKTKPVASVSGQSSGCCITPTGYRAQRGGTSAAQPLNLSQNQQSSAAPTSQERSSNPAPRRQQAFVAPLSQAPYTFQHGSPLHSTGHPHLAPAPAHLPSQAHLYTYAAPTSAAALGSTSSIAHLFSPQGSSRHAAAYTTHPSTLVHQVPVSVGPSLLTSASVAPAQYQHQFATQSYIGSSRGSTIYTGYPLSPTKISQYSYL
From the text: as §1

[10] = target: 363 human kinases (including Aurora A/B/C) (Homo sapiens, UniProt P16591); conditions: FER, [ATP] 50 µM; for remaining activity at 0.1 µM: 100 nM; for remaining activity at 0.1 µM / remaining activity at 0.5 µM: read-out: % Enzyme Activity (relative to DMSO controls)
Sequence of 363 human kinases (including Aurora A/B/C) (Homo sapiens, UniProt P16591) (P16591 whole entry): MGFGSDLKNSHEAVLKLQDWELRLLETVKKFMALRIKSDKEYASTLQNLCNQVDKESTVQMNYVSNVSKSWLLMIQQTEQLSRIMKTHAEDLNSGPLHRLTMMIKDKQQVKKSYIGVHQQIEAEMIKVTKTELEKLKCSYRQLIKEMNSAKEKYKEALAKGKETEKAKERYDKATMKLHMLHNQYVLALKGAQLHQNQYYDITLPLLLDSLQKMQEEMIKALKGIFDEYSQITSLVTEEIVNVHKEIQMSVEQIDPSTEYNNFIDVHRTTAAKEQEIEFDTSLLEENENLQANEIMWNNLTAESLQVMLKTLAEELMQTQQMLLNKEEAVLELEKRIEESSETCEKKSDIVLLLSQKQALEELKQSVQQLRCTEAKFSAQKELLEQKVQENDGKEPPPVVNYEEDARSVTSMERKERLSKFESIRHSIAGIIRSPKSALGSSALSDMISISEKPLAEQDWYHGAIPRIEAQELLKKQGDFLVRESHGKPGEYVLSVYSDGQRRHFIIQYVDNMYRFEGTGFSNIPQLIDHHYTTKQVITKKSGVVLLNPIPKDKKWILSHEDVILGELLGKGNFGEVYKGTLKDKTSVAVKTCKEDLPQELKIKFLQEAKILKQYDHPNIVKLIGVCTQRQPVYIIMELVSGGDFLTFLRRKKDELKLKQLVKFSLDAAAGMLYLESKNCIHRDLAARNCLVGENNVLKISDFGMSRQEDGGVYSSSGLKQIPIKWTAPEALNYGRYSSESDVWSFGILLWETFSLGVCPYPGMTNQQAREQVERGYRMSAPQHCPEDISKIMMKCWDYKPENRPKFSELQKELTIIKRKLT
From the text: as §1

Sequence of 363 human kinases (including Aurora A/B/C) (Homo sapiens, UniProt P78368) (P78368 whole entry): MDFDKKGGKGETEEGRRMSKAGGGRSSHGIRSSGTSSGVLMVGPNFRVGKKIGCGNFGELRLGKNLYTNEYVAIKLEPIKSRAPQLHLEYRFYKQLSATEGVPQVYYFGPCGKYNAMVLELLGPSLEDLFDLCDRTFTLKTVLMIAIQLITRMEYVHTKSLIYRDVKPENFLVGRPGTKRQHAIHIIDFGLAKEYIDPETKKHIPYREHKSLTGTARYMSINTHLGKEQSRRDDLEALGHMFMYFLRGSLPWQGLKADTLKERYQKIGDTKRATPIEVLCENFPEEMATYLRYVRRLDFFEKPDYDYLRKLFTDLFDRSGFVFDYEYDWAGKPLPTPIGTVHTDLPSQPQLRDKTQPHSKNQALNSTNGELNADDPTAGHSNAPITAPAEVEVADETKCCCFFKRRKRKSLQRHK

SMILES	remaining activity at 0.1 µM [1]	remaining activity at 0.5 µM ([1]; 500 nM)	remaining activity at 0.1 µM [2]	remaining activity at 0.5 µM ([2]; 500 nM)	remaining activity at 0.1 µM [3]	remaining activity at 0.5 µM ([3]; 500 nM)	remaining activity at 0.1 µM [4]	remaining activity at 0.5 µM ([4]; 500 nM)	remaining activity at 0.1 µM [5]	remaining activity at 0.5 µM ([5]; 500 nM)	remaining activity at 0.1 µM [6]	remaining activity at 0.5 µM ([6]; 500 nM)	remaining activity at 0.1 µM [7]	remaining activity at 0.5 µM ([7]; 500 nM)	remaining activity at 0.1 µM [8]	remaining activity at 0.5 µM ([8]; 500 nM)	remaining activity at 0.1 µM [9]	remaining activity at 0.5 µM ([9]; 500 nM)	remaining activity at 0.1 µM [10]	remaining activity at 0.5 µM ([10]; 500 nM)	other results
O=C(O)[C@]1(Cc2cccc(Nc3nccs3)n2)CC[C@@H](Oc2cccc(Cl)c2F)CC1 [MK-5108]	107%	80.2%	108%	104%	101%	94.1%	98.7%	88.8%	107%	85.6%	51.3%	36.5%	83%	33.8%	103%	82.7%	96.7%	67.8%	87%	49.8%	–
O=C(c1cccc(Cl)c1F)N1CCN(Cc2cccc(Nc3nccs3)n2)CC1 [MK-8745]	–	87.5%	–	106%	–	96.3%	–	94.7%	–	88.2%	–	75.1%	–	102%	–	88.7%	–	90.8%	–	83.7%	% Enzyme Activity (relative to DMSO controls) ([1]; 500 nM): 86.46%; % Enzyme Activity (relative to DMSO controls) ([2]; 500 nM): 105.68%; % Enzyme Activity (relative to DMSO controls) ([3]; 500 nM): 94.45%; % Enzyme Activity (relative to DMSO controls) ([4]; 500 nM): 93.63%; % Enzyme Activity (relative to DMSO controls) ([5]; 500 nM): 86.62%; % Enzyme Activity (relative to DMSO controls) ([6]; 500 nM): 71.54%; % Enzyme Activity (relative to DMSO controls) ([7]; 500 nM): 101.71%; % Enzyme Activity (relative to DMSO controls) ([8]; 500 nM): 88.41%; % Enzyme Activity (relative to DMSO controls) ([9]; 500 nM): 90.76%; % Enzyme Activity (relative to DMSO controls) ([10]; 500 nM): 82.62%
CCn1cc(-c2ccnc3[nH]c(-c4cccc(CN(C)C)c4)cc23)c(-c2ccc(NC(=O)N(C)C)cc2)n1 [GSK1070916]	89.5%	–	110%	–	93.8%	–	94%	–	76.5%	–	98.2%	–	92.3%	–	88.3%	–	99.2%	–	96.5%	–	–
